This test addresses MAP kinase-activated protein kinase 2 (Homo sapiens, UniProt P49137).

MAP kinase-activated protein kinase 2, sequence (P49137 whole entry): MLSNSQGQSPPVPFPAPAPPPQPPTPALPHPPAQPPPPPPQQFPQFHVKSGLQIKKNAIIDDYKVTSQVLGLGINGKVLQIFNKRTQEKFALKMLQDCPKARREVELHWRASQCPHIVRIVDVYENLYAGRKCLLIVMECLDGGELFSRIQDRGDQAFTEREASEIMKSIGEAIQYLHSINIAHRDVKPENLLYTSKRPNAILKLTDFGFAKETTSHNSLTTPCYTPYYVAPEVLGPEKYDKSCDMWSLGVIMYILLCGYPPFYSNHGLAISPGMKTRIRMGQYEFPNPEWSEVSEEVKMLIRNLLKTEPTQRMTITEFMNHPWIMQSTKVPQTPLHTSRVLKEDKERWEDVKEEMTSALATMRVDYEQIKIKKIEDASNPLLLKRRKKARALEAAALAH
Description: Concentration of 50% inhibition by compound towards mitogen activated protein kinase -activated protein kinase 2

With `N#Cc1c(N)nc2c(c1N)Cc1ccccc1S2`, the IC50 (usually the midpoint of a concentration-inhibition curve) is greater than 200 µM.

For the compound `N#Cc1c(N)nc2c(c1N)Cc1ccccc1S2(=O)=O`, the concentration for half-maximal inhibition (IC50) was greater than 200 µM.

In turn, `CCNc1cc2c(c(NCC)c1C#N)Cc1cc(O)c(O)cc1O2` showed a half-inhibitory concentration (IC50) greater than 200 µM.

As for `COc1ccc2c(c1)Oc1cc(N)c(C#N)c(N)c1C2c1ccccc1` (stereo not given), the IC50 is greater than 200 µM.

`N#Cc1c(N)cc2c(c1N)C(c1ccccc1)c1ccc(O)cc1O2` (stereo not given) came in with an IC50 greater than 200 µM.

The record behind these values is ChEMBL document CHEMBL1142035.
